Assay results reported in patent publication US20220151989A1, “LIPOIC ACID PRODRUG” (SANTEN PHARMACEUTICAL CO., LTD., priority 2019, published 2022).

Columns and labels:
lens elasticity [1] = experiment: Pharmacological Test-5: lens elasticity, once-daily instillation for 1 week; type: in vivo, C57BL/6J mice
Experimental: The effect of once-daily instillation of Compound for 1 week on the lens elasticity was examined.
Compound 1 was stirred with the addition of Vehicle C to give a 0.1% (w/v) solution. A 0.03% […] solution and a 0.01% (w/v) solution were prepared in the same manner.
1) Each test sample (2.5 μL/eye) was instilled into both eyes of 9-month-old C57BL/6J mice with a Pipetman once per day (around 9:00) for 7 days. 2) After the final instillation, the mice were euthanized by carbon dioxide inhalation, and then the eyeballs were extracted and rinsed with Hank's balanced salt solution (HBSS). 3) The sclera near the optic nerve was cut with a razor, the lens was removed through the incision, and the removed lens was immersed in HESS. 4) The lens was placed on a glass slide, and an all-in-one fluorescence microscope BZ-9000 (Keyence) was used to capture an image of the lens (Image a). 5) Next, one cover glass (Corning^(registered trade mark) 22×22 mm Square) was placed on the lens, and an image in which the thickness of the lens changed due to the weight was similarly captured (Image b). 6) A change in the lens diameter was calculated from the following Equation 1 wherein the lens diameter of Image a is subtracted from the lens diameter of Image b. Then, the lens elasticity improvement of each sample group compared with the vehicle control group was calculated from Equation 2 described below. The mean value of the vehicle control group was based on 10 eyes, the mean values of Compound 1 sample group were based on 10 eyes.
(§1) Change in lens diameter=Lens diameter in Image b of each test sample−Lens diameter in Image a of each test sample (Equation 1)
(§2) Lens elasticity improvement of each sample group=Mean change in lens diameter of each Test sample group−Mean change in lens diameter of Vehicle control group (Equation 2)

lens elasticity [2] = experiment: Pharmacological Test-3: lens elasticity, Compounds 5 and 6, 3 times per day for 14 days; type: in vivo,  mice
Experimental: The effects of Compounds 5 and 6 on the lens elasticity were investigated.
Compound 5 was stirred with the addition of Vehicle C to give a 0.03% (w/v) solution.
Compound 6 was stirred with the addition of Vehicle C to give a 0.03% (w/v) solution.
EV06 was stirred with the addition of Vehicle C to give a 0.03% (w/v) solution, which was used for comparison to the samples of Compounds 5 and 6.
1) Each test sample (2.5 μL/eye) was instilled into both eyes of 9-month-old […] mice with a Pipetman 3 times per day (around 9:00, 13:00 and 17:00) for 14 days. 2) After the final instillation, the mice were euthanized by carbon dioxide inhalation, and then the eyeballs were extracted and rinsed with Hank's balanced salt solution (HESS). 3) The sclera near the optic nerve was cut with a razor, the lens was removed through the incision, and the removed lens was immersed in HESS. 4) The lens was placed on a glass slide, and an all-in-one fluorescence microscope BZ-9000 (Keyence) was used to capture an image of the lens (Image a). 5) Next, one cover glass (Corning^(registered trade mark) 22×22 mm Square) was placed on the lens, and an image in which the thickness of the lens changed due to the weight was similarly captured (Image b). 6) A change in the lens diameter was calculated from the following Equation 1 wherein the lens diameter of Image a is subtracted from the lens diameter of Image b. Then, the lens elasticity improvement of each sample group compared with the vehicle control group was calculated from Equation 2 described below. The mean value of the vehicle control group was based on 8 eyes, and the mean value of each of the sample groups of Compounds 5 and 6 and EV06 was based on 10 eyes.
as §1, §2

Compound	Lens elasticity improvement (lens elasticity [1]; 0.01% (w/v) solution in Vehicle C, both eyes, once per day for 7 days, 9-month-old mice) [μm]	Lens elasticity improvement (lens elasticity [1]; 0.03% solution in Vehicle C, both eyes, once per day for 7 days, 9-month-old mice) [μm]	Lens elasticity improvement (lens elasticity [1]; 0.1% (w/v) solution in Vehicle C, both eyes, once per day for 7 days, 9-month-old mice) [μm]	Lens elasticity improvement (lens elasticity [1]; concentration of 0.1%, once-daily for 1 week)	Lens elasticity improvement (lens elasticity [2]; 0.03% (w/v) solution in Vehicle C, both eyes, 3 times per day for 14 days, 9-month-old mice) [μm]	lens elasticity improving effect (lens elasticity [2]; at a concentration of 0.03%)
CC(C)=CCOC(=O)CCCC[C@@H]1CCSS1 [Compound 1, 3-Methyl-2-buten-1-yl (R)-5-(1,2-dithiolan-3-yl)pentanoate]	10.6	20.3	60.1	potent lens elasticity improvement		
C[N+](C)(C)CCOC(=O)CCCC[C@@H]1CCSS1.[Cl-] [EV06, Lipoic acid choline ester, reference compound]					3.6	did not show lens elasticity improving effect
